Assay results reported in patent US11236086B2, “Substituted pyrrolopyridines as inhibitors of activin receptor-like kinase” (BLUEPRINT MEDICINES CORPORATION, priority 2017, dated 2022).

These compounds were tested against T1, ALK2R206H (mutant ALK2, N-terminally tagged with GST) (Homo sapiens, UniProt Q04771, R206H) (assay: ALK binding assay (LANTHASCREEN TR-FRET competitive binding, displacement of Kinase Tracer 178)). Conditions: read-out: Binding Assay (IC50 class).
T1 construct: purchased Carna Bioscience or ThermoFisher 09-148 or PV6232
T1 sequence (Q04771 21-509 R206H): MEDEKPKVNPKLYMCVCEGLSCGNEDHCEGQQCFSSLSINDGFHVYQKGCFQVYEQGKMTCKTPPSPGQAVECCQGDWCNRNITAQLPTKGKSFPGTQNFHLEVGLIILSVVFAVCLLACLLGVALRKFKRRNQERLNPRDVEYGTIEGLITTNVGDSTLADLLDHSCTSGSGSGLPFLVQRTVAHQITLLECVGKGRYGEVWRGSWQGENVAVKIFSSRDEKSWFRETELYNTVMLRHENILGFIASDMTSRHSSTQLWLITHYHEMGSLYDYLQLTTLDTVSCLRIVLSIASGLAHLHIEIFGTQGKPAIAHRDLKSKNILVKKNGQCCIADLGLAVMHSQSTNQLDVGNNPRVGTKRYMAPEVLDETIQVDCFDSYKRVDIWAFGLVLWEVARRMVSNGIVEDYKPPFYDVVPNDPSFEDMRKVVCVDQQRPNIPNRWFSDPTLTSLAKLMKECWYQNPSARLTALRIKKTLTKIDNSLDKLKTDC
How it was run: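 Competitive displacement of Kinase Tracer 178 (50 nM) from N-terminally GST-tagged mutant ALK2 R206H (2-5 nM) by compound, detected by TR-FRET with Eu-anti-GST antibody (4-10 nM). 30 min room temperature incubation, 1% DMSO final; normalized signal fitted to 4-parameter log dose response for IC50.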

| SMILES | IC50 [nM] |
| --- | --- |
| CC1(c2ccc(-c3cc4c(N5CCN(C(=O)C6CC6)CC5)ccnc4[nH]3)cc2)COC1 [Compound 271] | ≤ 10 |
| Cn1cnc(-c2cc3c(N4CCN(C(=O)O[C@H]5C[C@@H](F)C5)CC4)ccnc3[nH]2)c1 [Compound 160] | ≤ 10 |
| COC1(c2ccc(-c3cc4c(N5CCN(C(=O)OC6COC6)CC5)ccnc4[nH]3)nc2)CCN(C[C@@H](C)F)CC1 [Compound 479] | ≤ 10 |
| O=C(OC1COC1)N1CCN(c2ccnc3[nH]c(-c4nc5c(s4)COCC5)cc23)CC1 [Compound 371] | ≤ 10 |
| CCOC(=O)N1CCN(c2ccnc3[nH]c(-c4cnn(C(C)C)c4)cc23)CC1 [Compound 96] | ≤ 10 |
| Cn1cc(-c2[nH]c3nccc(N4CCN(C(=O)OC5COC5)CC4)c3c2F)cn1 [Compound 178] | ≤ 10 |
| CCOC(=O)N1CCN(c2ccnc3[nH]c(-c4ccc(C5(O)CCOCC5)cc4C#N)cc23)CC1 [Compound 441] | ≤ 10 |
| Cc1nc(-c2cc3c(N4CCN(C(=O)O[C@H]5C[C@H](F)C5)CC4)ccnc3[nH]2)cs1 [Compound 260] | ≤ 10 |
| O=C(OC1COC1)N1CCN(c2ccnc3[nH]c(-c4cnn(C(F)F)c4)c(Cl)c23)CC1 [Compound 407] | ≤ 10 |
| O=C(C1CC1)N1CCN(c2ccnc3[nH]c(-c4ccc(OC5CCC5)cc4)cc23)CC1 [Compound 273] | ≤ 10 |
| N#Cc1c(-c2nc3c(s2)COCC3)[nH]c2nccc(N3CCN(C(=O)OC4COC4)CC3)c12 [Compound 434] | ≤ 10 |
| Cn1cc(-c2[nH]c3nccc(N4CCN(C(=O)[C@H]5C[C@@H]5C#N)CC4)c3c2Cl)cn1 [Compound 228] | ≤ 10 |

More lines, now with the values ahead:

| IC50 [nM] | SMILES |
| --- | --- |
| ≤ 10 | Cn1cc(-c2cc3c(N4CCN(C(=O)[C@H]5CC[C@H](O)CC5)CC4)ccnc3[nH]2)cn1 [Compound 224] |
| ≤ 10 | O=C(C1CC1)N1CCN(c2ccnc3[nH]c(-c4ccc(N5CCN6CCOCC6C5)cc4)cc23)CC1 (stereo not drawn) [Compound 453] |
| ≤ 10 | CCOC(=O)N1CCN(c2ccnc3[nH]c(-c4cnn(CC(C)C#N)c4)cc23)CC1 (stereo not drawn) [Compound 214] |
| ≤ 10 | CCN1CCC(c2ccc(-c3cc4c(N5CCN(C(=O)C6CC6)CC5)ccnc4[nH]3)cc2)C(F)C1 (stereo not drawn) [Compound 442] |
| ≤ 10 | O=C(OC1COC1)N1CCN(c2ccnc3[nH]c(-c4cnn(C5CC5)c4)cc23)CC1 [Compound 219] |
| ≤ 10 | Cc1cnc(-c2cc3c(N4CCN(C(=O)OC5COC5)CC4)ccnc3[nH]2)s1 [Compound 174] |
| ≤ 10 | O=C(C1CC1)N1CCN(c2ccnc3[nH]c(-c4ccc(C5(O)COC5)cc4)cc23)CC1 [Compound 283] |
| ≤ 10 | O=C(C1CC1)N1CCN(c2ccnc3[nH]c(-c4ccc(C5(O)CCCOC5)cc4)cc23)CC1 (stereo not drawn) [Compound 385] |
| ≤ 10 | Cn1cnc(-c2[nH]c3nccc(N4CCN(C(=O)O[C@H]5CCC5(F)F)CC4)c3c2C#N)c1 [Compound 369] |
| ≤ 10 | CCOC(=O)N1CCN(c2ccnc3[nH]c(-c4cn(C)nc4F)cc23)CC1 [Compound 51] |
| ≤ 10 | CCOC(=O)N1CCN(c2ccnc3[nH]c(-c4cnn(C)c4)c(Br)c23)CC1 [Compound 341] |
| ≤ 10 | CO[C@H]1C[C@H](OC(=O)N2CCN(c3ccnc4[nH]c(-c5cnn(C)c5)cc34)CC2)C1 [Compound 232] |
| ≤ 10 | CC(C)(C)c1csc(-c2cc3c(N4CCN(C(=O)OC5COC5)CC4)ccnc3[nH]2)n1 [Compound 372] |
| ≤ 10 | Cn1cc(-c2[nH]c3nccc(N4CCN(C(=O)O[C@H]5CCC5(F)F)CC4)c3c2C#N)cn1 [Compound 367] |
| 10 to 50 | CC(C)CC(=O)N1CCN(c2ccnc3[nH]c(-c4cnn(C)c4)cc23)CC1 [Compound 32] |

These compounds were tested against T2, human ALK2 R206H (Homo sapiens, UniProt Q04771, R206H) (assay: Cell-based ALK2-R206H cell activity assay (Smad1-Ser463/Ser465 phosphorylation by AlphaLISA in HEK293-ALK2-R206H cells)). Conditions: phospho-Smad1 AlphaLISA, read-out: Cell Line (Cell Assay, IC50 class).
T2 construct: expressed in transfected cells; host or cells: HEK293 (ATCC CRL1573), lentivirus transduction, blasticidin selection
T2 sequence (Q04771 21-509 R206H): T1 sequence (Q04771 21-509 R206H)
How it was run: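 IC50 comes from a 10-point curve, scaled between DMSO and 1 μM LDN193189 controls, of lysate phospho-Smad1 (Ser463/465) measured by AlphaLISA. Compounds (top 10 μM or 1 μM, 3-fold steps, duplicates) were given 2-3 h to serum-starved HEK293 cells that stably express FLAG-tagged human ALK2 R206H.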

| SMILES | IC50 [nM] |
| --- | --- |
| CC1(c2ccc(-c3cc4c(N5CCN(C(=O)C6CC6)CC5)ccnc4[nH]3)cc2)COC1 [Compound 271] | ≤ 100 |
| Cn1cnc(-c2cc3c(N4CCN(C(=O)O[C@H]5C[C@@H](F)C5)CC4)ccnc3[nH]2)c1 [Compound 160] | ≤ 100 |
| COC1(c2ccc(-c3cc4c(N5CCN(C(=O)OC6COC6)CC5)ccnc4[nH]3)nc2)CCN(C[C@@H](C)F)CC1 [Compound 479] | ≤ 100 |
| O=C(OC1COC1)N1CCN(c2ccnc3[nH]c(-c4nc5c(s4)COCC5)cc23)CC1 [Compound 371] | ≤ 100 |
| CCOC(=O)N1CCN(c2ccnc3[nH]c(-c4cnn(C(C)C)c4)cc23)CC1 [Compound 96] | ≤ 100 |
| Cn1cc(-c2[nH]c3nccc(N4CCN(C(=O)OC5COC5)CC4)c3c2F)cn1 [Compound 178] | 100 to 500 |
| CCOC(=O)N1CCN(c2ccnc3[nH]c(-c4ccc(C5(O)CCOCC5)cc4C#N)cc23)CC1 [Compound 441] | ≤ 100 |
| Cc1nc(-c2cc3c(N4CCN(C(=O)O[C@H]5C[C@H](F)C5)CC4)ccnc3[nH]2)cs1 [Compound 260] | ≤ 100 |
| O=C(OC1COC1)N1CCN(c2ccnc3[nH]c(-c4cnn(C(F)F)c4)c(Cl)c23)CC1 [Compound 407] | ≤ 100 |
| O=C(C1CC1)N1CCN(c2ccnc3[nH]c(-c4ccc(OC5CCC5)cc4)cc23)CC1 [Compound 273] | 100 to 500 |
| N#Cc1c(-c2nc3c(s2)COCC3)[nH]c2nccc(N3CCN(C(=O)OC4COC4)CC3)c12 [Compound 434] | ≤ 100 |
| Cn1cc(-c2[nH]c3nccc(N4CCN(C(=O)[C@H]5C[C@@H]5C#N)CC4)c3c2Cl)cn1 [Compound 228] | ≤ 100 |

Results, then the compound that gave them:

| IC50 [nM] | SMILES |
| --- | --- |
| > 500 | Cn1cc(-c2cc3c(N4CCN(C(=O)[C@H]5CC[C@H](O)CC5)CC4)ccnc3[nH]2)cn1 [Compound 224] |
| ≤ 100 | O=C(C1CC1)N1CCN(c2ccnc3[nH]c(-c4ccc(N5CCN6CCOCC6C5)cc4)cc23)CC1 (stereo not drawn) [Compound 453] |
| 100 to 500 | CCOC(=O)N1CCN(c2ccnc3[nH]c(-c4cnn(CC(C)C#N)c4)cc23)CC1 (stereo not drawn) [Compound 214] |
| ≤ 100 | CCN1CCC(c2ccc(-c3cc4c(N5CCN(C(=O)C6CC6)CC5)ccnc4[nH]3)cc2)C(F)C1 (stereo not drawn) [Compound 442] |
| ≤ 100 | O=C(OC1COC1)N1CCN(c2ccnc3[nH]c(-c4cnn(C5CC5)c4)cc23)CC1 [Compound 219] |
| 100 to 500 | Cc1cnc(-c2cc3c(N4CCN(C(=O)OC5COC5)CC4)ccnc3[nH]2)s1 [Compound 174] |
| 100 to 500 | O=C(C1CC1)N1CCN(c2ccnc3[nH]c(-c4ccc(C5(O)COC5)cc4)cc23)CC1 [Compound 283] |
| ≤ 100 | O=C(C1CC1)N1CCN(c2ccnc3[nH]c(-c4ccc(C5(O)CCCOC5)cc4)cc23)CC1 (stereo not drawn) [Compound 385] |
| ≤ 100 | Cn1cnc(-c2[nH]c3nccc(N4CCN(C(=O)O[C@H]5CCC5(F)F)CC4)c3c2C#N)c1 [Compound 369] |
| 100 to 500 | CCOC(=O)N1CCN(c2ccnc3[nH]c(-c4cn(C)nc4F)cc23)CC1 [Compound 51] |
| ≤ 100 | CCOC(=O)N1CCN(c2ccnc3[nH]c(-c4cnn(C)c4)c(Br)c23)CC1 [Compound 341] |
| ≤ 100 | CO[C@H]1C[C@H](OC(=O)N2CCN(c3ccnc4[nH]c(-c5cnn(C)c5)cc34)CC2)C1 [Compound 232] |
| ≤ 100 | CC(C)(C)c1csc(-c2cc3c(N4CCN(C(=O)OC5COC5)CC4)ccnc3[nH]2)n1 [Compound 372] |
| ≤ 100 | Cn1cc(-c2[nH]c3nccc(N4CCN(C(=O)O[C@H]5CCC5(F)F)CC4)c3c2C#N)cn1 [Compound 367] |
| 100 to 500 | CC(C)CC(=O)N1CCN(c2ccnc3[nH]c(-c4cnn(C)c4)cc23)CC1 [Compound 32] |
